Laboratory results published in patent publication US9815883B2, “Inhibiting peptides derived from TREM-like transcript 1 (TLT-1) and uses thereof” (Institut National de la Sante et de la Recherche Medicale …, priority 2010, dated 2017).
Entries after “also recorded” stand apart in the source; their conditions may differ.

What was measured:
TREM-1 [1] = assay: Cytokine expression and production by stimulated neutrophils and monocytes; assay type: cell-based, human
Description: (E) Cytokines expression: TNF-α mRNA levels in neutrophils stimulated for 6 hours.
(F) Cytokines production: ELISA of TNF-α in neutrophils treated for 2, 6 and 24 hours
(F) Cytokines expression: TNF-α mRNA levels in neutrophils stimulated for 6 hours.
(G-H) Cytokines production: ELISA of TNF-α, in neutrophils treated for 2, 6 and 24 hours.
Depending on the experiment, cells were stimulated in complete medium supplemented with 100 ng/mL of E. Coli LPS (0111:B4, Sigma-Aldrich), anti-TREM-1 mAb (R&Dsystems) and TLT-1-peptides at different times and concentrations on 96-wells plates (Greiner Bio One). Supernatants were collected for cytokine measurements and cells subjected to flow cytometry or lysed for protein phosphorylation analyses and NFkB activity measurement.
Cytokines in supernatants of stimulated human cells or mouse plasma were measured by ELISA (human and mouse Quantikine ELISA kits, R&Dsystems) and cytokines panel assays (Proteome Profiler Human Cytokine Array Kit, Panel A and Proteome Profiler Mouse Cytokine Array Kit, Panel A, R&Dsystems) according to manufacturers' recommendations.

TREM-1 ligand (agonist) = assay: Immunoblot revealed by mouse anti-TREM-1 mAb (TREM-1 agonist); assay type: binding; settings: FIG. 1A
Source text: To determine whether sTLT-1 may specifically bind to the TREM-1 ligand and thus interfere with the TREM-1/TREM-1 ligand interaction, we used a specific TREM-1 agonist known to bind and activate TREM-1, mimicking TREM-1 engagement by its ligand.

male Balb/c mice = assay: LPS-induced endotoxemia in mice; assay type: in vivo, mouse
Description: Male Balb/c mice (20-23 g) were randomly grouped (15 mice per group) and treated with an LD50 of LPS. LR17 (100 μg or 250 μg in 0.2 mL NaCl 0.9%), scrambled-LR17 (100 μg in 0.2 mL NaCl 0.9%), or 0.2 mL NaCl 0.9% was administered 60 min before or 60 minutes after LPS. 4-6 animals per group were sacrificed upon penthotal overdose at 2 and 4 hours after LPS injection and blood was sampled through cardiac puncture. Results are mean±SD. p values are *p<0.05, **p<0.01, ***p<0.001 compared with control animals.
After approval by the local ethical committee, male Balb/c mice (4-6 weeks) were randomly grouped and treated with LPS i.p. in combination with LR17 (in 250 μL normal saline) or LR17-scrambled 1 hour before or after LPS challenge. The viability of mice was examined every hour, or animals were killed at regular intervals. Serum samples were collected by cardiac puncture and assayed for cytokines and sTREM-1 levels by ELISA (R&Dsystems).

TREM-1 [2] = assay: ROS production by neutrophils (DCFDA, flow cytometry); assay type: cell-based, human; settings: peptide 30 μg/mL
Description: (D) ROS production: Flow cytometric quantification (DCFDA reduction) of neutrophils ROS production after 2 hours stimulation.
The quantitative determination of neutrophil phagocytosis and oxidative burst was performed by flow cytometry using the Phagotest and the Bursttest (Orpegen Pharma, Heidelberg, Germany) following the manufacturers' recommendations. A FITC-labelled opsonized E. coli was used to determine the general phagocytic activity (ingestion of one or more bacteria per cell) and the individual cellular phagocytic activity (number of bacteria per cell). For evaluation of oxidative burst activity, unlabeled opsonized E. coli, fMLP, PMA LPS and activated- or non-activated-platelets (30:1) were used as stimulants and DCFDA as a fluoregenic substrate (Invitrogen) accordingly with manufacturers' instructions.

With “LQEEDAGEYGCMVDGAR (listed as Homo sapiens) [LR17]” the “production of TNF-α, IL-6, IL-8, GRO-α, IL-1β, IL-16, MCP-1, MIP-1β and RANTES (broad cytokine arrays)” value (TREM-1 [1]) was “decreased production”, the “LPS associated TNF-α secretion by neutrophils and monocytes, gene and protein level” value (TREM-1 [1]; LPS) was “dose-dependently reduced” and the “synergy of αTREM-1 with LPS for cytokine production” value (TREM-1 [1]; LPS + αTREM-1) was “blocked; also recorded: abrogated”. The “effects in human monocytes and upon TLR2 (Pam3SK4) stimulation” value (TREM-1 [1]; not shown) was “confirmed to occur”, the “cytokine production by activated neutrophils, gene and protein levels (TNF-α, IL-6, IL-8)” value (TREM-1 [1]; αTREM-1 5 μg/mL, peptide 30 μg/mL) was “able to decrease cytokine production” and the “αTREM-1 induced TNF-α production by neutrophils” value (TREM-1 [1]; αTREM-1 alone) was “abrogated”. The “binding to the TREM-1 ligand (TREM-1 agonist, anti-TREM-1 mAb)” value (TREM-1 ligand (agonist)) was “able to bind the TREM-1 ligand”, the “serum levels of TNF-α, IL-6, IL-10 and sTREM-1” value (male Balb/c mice; 2 and 4 h, pre- and post-treatment, versus controls) was “reduced” and the survival curve (male Balb/c mice; Log Rank test, p=0.0032) was “confers a survival advantage”. For the same sequence, the “survival, delayed treatment” value (male Balb/c mice; injected 1 hour after LPS) was “significant protection”, the “comparison of doses (250 μg vs 100 μg) or injection times” value (male Balb/c mice; mouse, in vivo) was “no differences between doses or injection times; also recorded: did not confer advantage” and the late death (male Balb/c mice; over 10 days) was “No late death occurred”. The survival (male Balb/c mice; single i.p. dose 60 min before LPS (LD50, 25 mg/kg)) was “All LR17-treated animals survived”, the “intracellular ROS production” value (TREM-1 [2]; LPS 0.1 μg/mL with or without αTREM-1) was “decreased” and the “ROS production by neutrophils” value (TREM-1 [2]; TREM-1 agonist and platelets as inducers, 2 hours) was “partly prevented”.
